The values that follow come from publication PMC4855506 (Journal of molecular and cellular cardiology, 2011).

A short description of this data set: coupled proteolysis-cGMP elevation bioassay with protease inhibitors. The class given is in vitro ADME, human.
The mark [1] stands for this setting: Fig. 2B, 30 min, 37 °C, human kidney membranes, 293-GC-A cells, n=4.

With C-type natriuretic peptide [CNP], for the setting “Fig. 2A, 30 min, 37 °C, boiled human kidney membranes, n=8”, the “effect of boiling the membranes prior to peptide exposure” value is on record as “abolished membrane-dependent inactivation”. Besides, the “effect of actinonin together with phosphoramidon” value (Fig. 2A, 30 min, 37 °C, human kidney membranes, n=8) was “did not further increase activity above that seen with phosphoramidon alone”. Also, the “activity loss blocked by phosphoramidon” value (Fig. 2A, NEP inhibitor phosphoramidon, 30 min, 37 °C, human kidney membranes, n=8) was “about 40%”. In addition, for the setting “Fig. 2A, meprin inhibitor actinonin, 30 min, 37 °C, human kidney membranes, n=8”, the “effect of actinonin alone on inactivation” value is reported as “did not block inactivation”. Moreover, the “effect of leupeptin on inactivation” value (Fig. 2A, serine-threonine-cysteine protease inhibitor leupeptin, 30 min, 37 °C, human kidney membranes, n=8) is given as “did not statistically increase the bioactivity”. For the same substance, the “increase of bioactivity on inhibition of NEP in kidney membranes” value (phosphoramidon, human kidney membranes, 30 min, 37 °C (Fig. 2A)) came to 8 fold.
As to B-type natriuretic peptide [BNP], under setting [1], the “effect of leupeptin on degradation” value is given as “completely blocked the degradation” and the “effect of phosphoramidon on degradation” value was “failed to preserve the activity”. The “effect of boiling the membranes before peptide exposure” value (Fig. 2B, 30 min, 37 °C, 293-GC-A cells, n=4) was “blocked inactivation”.
Take Dendroaspis natriuretic peptide [DNP]: the “activity in the presence of phosphoramidon” value (Fig. 2C, 120 min, 37 °C, human kidney membranes, human GC-A read-out, n=4) is listed as “significantly less than control values”.
